According to US4748161A, “Triterpenyl esters of organic acids and hypolipidemic agents composed of them” (Amano Pharmaceutical Co., Ltd., priority 1984, dated 1988):

Tested on: serum lipids and serum lipid hydroperoxide
Experiment: Pharmacological test method A for anti-hyperlipidemic activity (serum lipids, 2 weeks feeding)
Assay type: in vivo, male Wistar strain rats
Conditions: for AI [(TC - HDL-C)/(HDL-C)] / HDL-C in serum / LPO in serum / PL in serum / TC in serum / TG in serum: 1% in hyperlipidemic diet, 2 weeks; for AI % of diff. / AI Diff. / HDL-C % of diff. / HDL-C Diff. / LPO % of diff. / LPO Diff. / PL Diff. / TC % of diff. / TC Diff. / TG % of diff. / TG Diff. / PL % of diff.: versus control group
Procedure: Male Wistar strain rats (100±lg, each 10 rats were formed into a group) were used as test animals. Diet for the control group was prepared by thorough mixing of 20% casein, 62.5% glucose, 10% hydrogenated coconut oil, 2% agar powder, 4% vitamin-containing salt mixture, 1% cholesterol, and 0.5% cholic acid (this composition is described by Fukushima et al, in "Yakugaku Zassi", 89, No. 6, pp. 857-862 (1962)). Diet for the test groups was prepared by good mixing of 1% each of cycloartenol, 24-methylenecycloartanol, and cyclobranol with the control group's diet. Each rat was kept in a cage at a constant temperature of 23±1° C. and a constant R.H. of 55±5% for 2 weeks, during which 10 g/day of the prescribed was given. Finally the rats were fasted from food except water for 16 hours (from 4 p.m. of the 14th test day to 8 a.m. of the 15th test day), and under anesthesia with pentbarbital sodium (tradename: Nembutal), blood was taken from each rat through the descending abdominal arota. Then, TC, HDL-C, TG, PL, and LPO in the serum were measured in the manner that will be described below.
A TC kit-K (supplied by Nippon Shoji Kaisha, Ltd.) was used. The principle of this determination is as follows: The ester of cholesterol in the serum is hydrolyzed with cholesterol-ester hydrolase into free cholesterol and fatty acids. All the free cholesterol is oxidized with cholesterol oxydase to form Δ^4 -cholestenone and hydrogen peroxide. Phenol and 4-aminoantipyrin are oxidatively condensed together by the formed hydrogen peroxide and peroxydase. The produced red quinone coloring matter is measured by colorimetry for absorbance at 500 nm using a spectrophotometer, thereby determining the TC:
The color-developing liquid (3.0 ml) is well mixed with the sample serum (0.02 ml). The mixture once heated at 37° C. for 15 minutes, is measured for absorbance at 500 nm with a spectrophotometer. The found absorbance is denoted by EA. On the other hand, the color-developing liquid (3.0 ml) is well mixed with the standard solution. The mixture is treated and measured for absorbance at 500 nm in the same manner as the above. This found absorbance is denoted by ES. Both EA and ES are determined with reference to the value of the blank test conducted using the color-developing liquid (3.0 ml) alone. [formula]
An HDL-C kit-N (supplied by Nippon Shoji Kaisha, Ltd.) was used. […] (VLDL) and lo density lipoprotein (LDL) in the serum is precipitated by the action of heparin. The precipitate is separated by centrifugation. High density lipoprotein (HDL) is dissolved in the separated supernatant. Esters of cholesterol in this fraction is hydrolyzed with cholesterol-ester hydrolase into free cholesterol and fatty acids. All the free cholesterol is oxidized with cholesterol oxydase to form Δ^4 -cholestenone and hydrogen peroxide. Phenol and 4-aminoantipyrine are oxidatively condensed together by the formed hydrogen peroxide and peroxydase. The produced red quinone coloring matter is measured by colorimetry for absorbance at 500 nm using a spectrophotometer, thereby determining the HDL-C.
A PL kit-K (supplied by Nippon Shoji Kaisha, Ltd.) was used for the determination. Lecithin, sphingomyelin, and lysolecithin are decomposed by phospholipase D into choline and phosphatidic acid, N-acylsphingosyl phosphate, or lysophosphatidic acid, respectively. The resulting choline is quantitatively decomposed by choline oxydase into hydrogen peroxide and betaine. With this hydrogen peroxide, and aid of peroxydase, phenol and 4-aminoantipyrin are condensed into red quinone pigment, then the absorbance at 500 nm of which is measured with a spectrophotometer, thereby determining the PL.
Serum TG level was determined by means of a triglyceride test kit (supplied by Wako Pure Chemical Industries, Ltd.) in which acetylacetone is used for a reagent, in the following manner: Serum proteins are precipitated, when isopropyl alcohol and the sample serum are mixed. […]

| Compound | AI [(TC - HDL-C)/(HDL-C)] | HDL-C in serum [mg/dL] | LPO in serum [nmol/mL] | PL in serum [mg/dL] | TC in serum [mg/dL] | TG in serum [mg/dL] | AI % of diff. [%] | AI Diff. | HDL-C % of diff. | HDL-C Diff. | LPO % of diff. [%] | LPO Diff. [nmol/mL] | PL Diff. [mg/dL] | TC % of diff. [%] | TC Diff. [mg/dL] | TG % of diff. | TG Diff. | PL % of diff. [%] |
| --- | --- | --- | --- | --- | --- | --- | --- | --- | --- | --- | --- | --- | --- | --- | --- | --- | --- | --- |
| C=C(CCC(C)C1CCC2(C)C3CCC4C(C)(C)C(OC(=O)C=Cc5cccc(N)c5)CCC45CC35CCC12C)C(C)C (stereo not shown) [Example 112, 24-methylenecycloartanyl ester of m-aminocinnamic acid] | 3.624 | 46.8 | 2.16 | 150.4 | 216.4 | 28.5 | -53.8 | -4.216 | +26.8% | +9.9 mg/dl | -22.9 | -0.64 | -15.2 | -33.7 | -109.8 | -16.2% | -5.5 mg/dL |  |
| COc1cc(C=CC(=O)OC2CCC34CC35CCC3(C)C(C(C)CCC=C(C)C)CCC3(C)C5CCC4C2(C)C)ccc1O (stereo not shown) [Example 100-1, cycloartenyl-4-hydroxy-3-methoxycinnamate] | 1.204 | 79.1 | 1.51 | 150.0 | 174.3 | 28.3 | -20.6 | -0.313 | -3.0% | -2.4 mg/dL | -33.5 | -0.76 | -23.1 | -15.0 | -30.8 | -17.6% | -6.0 mg/dL | -13.3 |
| CC(C)=CCCC(C)C1CCC2(C)C3CCC4C(C)(C)C(OC(=O)C=Cc5ccc(N)cc5)CCC45CC35CCC12C (stereo not shown) [Example 102, cycloartenyl ester of p-amino-cinnamic acid] | 3.262 | 48.1 | 2.02 | 140.9 | 205.0 | 26.7 | -58.4 | -4.578 | +30.4% | +11.2 mg/dl | -27.9 | -0.78 | -24.7 | -37.2 | -121.2 | -21.5% | -7.3 mg/dL | -14.9 |
| CC(C)=C(C)CCC(C)C1CCC2(C)C3CCC4C(C)(C)C(OC(=O)C=Cc5ccc(N)cc5)CCC45CC35CCC12C (stereo not shown) [Example 104, cyclobranyl ester of p-aminocinnamic acid] | 3.205 | 48.7 | 2.01 | 143.7 | 204.8 | 27.4 | -59.1 | -4.635 | +32.0% | +11.8 mg/dl | -28.2 | -0.79 | -21.9 | -37.2 | -121.4 | -19.4% | -6.6 mg/dL | -13.2 |
| CC(C)=CCCC(C)C1CCC2(C)C3CCC4C(C)(C)C(OC(=O)c5ccc(O)cc5)CCC45CC35CCC12C (stereo not shown) [Example 10, cycloartenyl-p-hydroxybenzoate] | 1.543 | 57.6 | 1.73 | 123.3 | 146.5 | 27.3 | -12.7 | -0.224 | -4.3% | -2.6 mg/dL | -31.6 | -0.80 | -13.4 | -12.1 | -20.1 | +0.4% | +0.1 mg/dl | -9.8 |
| CC(C)=C(C)CCC(C)C1CCC2(C)C3CCC4C(C)(C)C(OC(=O)c5ccc(N)cc5)CCC45CC35CCC12C (stereo not shown) [Example 43, cyclobranyl-p-aminobenzoate] | 0.713 | 91.9 | 1.54 | 146.0 | 157.4 | 33.3 | -41.7 | -0.509 | +6.2% | +5.4 mg/dl | -31.3 | -0.70 |  | -18.1 | -34.8 | -8.2% | -3.0 mg/dL | -15.4 |
| CC(C)=CCCC(C)C1CCC2(C)C3CCC4C(C)(C)C(OC(=O)c5cccnc5)CCC45CC35CCC12C (stereo not shown) [Example 24, cycloartenyl nicotinate] | 0.748 | 94.0 | 1.93 | 133.8 | 164.3 | 34.7 | -38.8 | -0.474 | +8.7% | +7.5 mg/dl | -13.7 | -0.31 | -38.8 | -14.5 | -27.9 | 4.3% | -1.6 mg/dL | -22.5 |
